Test results taken from patent US10857170B1, “Molecules, compositions and methods for modulation of SIRT6” (SirTLab Corporation, priority 2015, dated 2020).

Molecular target: T1, Human recombinant SIRT6 (Homo sapiens, UniProt Q8N6T7)
T1 construct: six-histidine (His6); made in house; host or cells: Escherichia coli BL21
Assay: SIRT6 enzymatic activity assay (fluorogenic de-myristoylation of histone H3 peptide-AMC, trypsin-coupled)
Format: biochemical
Settings: for % activity 20 uM / % activity 100 uM: Table 2, percentage of signal increase relative to control wells; for % activity 20 uM: compound 20 uM; for % activity 100 uM: compound 100 uM; for % activity (20 micromolar only): Table 3, compound 20 micromolar
Description: Human recombinant SIRT6 (sequence identifier: CAG33481.1; GI:4814651) was expressed in large scale in Escherichia coli strain BL21 as a six-histidine-tagged protein, after transformation of the expression plasmid pET28-SIRT6. The SIRT6 enzyme was purified from the bacteria culture broth in a two-step strategy. The first purification step was carried out by cation exchange chromatography on a HiTrap CM-Sepharose column (GE Healthcare) using an FPLC system. The second purification step was performed by immobilized metal ion affinity chromatography (IMAC) using a cobalt affinity column (Clontech).
The enzymatic activity assay is carried out in 96 or 384-well microplates using the purified recombinant SIRT6 and a fluorophore-labeled peptide substrate: 7-amino-4-methylcoumarin (AMC) that is quenched through conjugation to the C-terminal end of a Lysin-myristoylated histone H3 peptide. The activity assay procedure requires two steps, both performed in the same microplate. In the first step, the substrate is incubated with the purified SIRT6 protein along with the co-substrate nicotinamide adenine dinucleotide (NAD+). Upon de-myristoylation, the liberated ε-amino group of the lysine becomes a trypsin substrate. Treatment with trypsin in the second step releases the fluorophore resulting in an increase in fluorescence. Fluorescence intensity is measured using a fluorescent plate reader (excitation and emission at 370 nm and 450 nm, respectively). The fluorescence signal is directly proportional to SIRT6 enzymatic activity.
In the primary screening, compounds from a library (ChemDiv Inc.) were tested at a single concentration of 20 micromolar for their potential to modulate SIRT6 enzymatic activity. The assay was carried out in 384-well black well plates and all liquid handling was done using a robotic liquid handler. Purified recombinant SIRT6 (1 micromolar) was pre-incubated with each compound (or DMSO in control wells) for 15 minutes at room temperature. The first stage of the assay was initiated by adding a ‘substrate solution’ containing the myristoylated histone H3 peptide and NAD+(for final concentrations of 25 micromolar and 20 micromolar, respectively). After one hour incubation at 37° C., a Trypsin solution (6 mg/mL) was added for 30 minutes at room temperature. Fluorescence intensity was measured using a fluorescent plate reader (Tecan) with excitation at 370 nm and emission at 450 nm. The effect of each tested compound was evaluated by the change in the fluorescence intensity compared to control wells. […] To validate the primary screening results, each of the primary “hits” was re-tested, first at concentration of 20 micromolar in duplicates and later at a serial dilution ranging from 100 to 0.2 micromolar in triplicates.

T1 sequence (Q8N6T7 whole entry): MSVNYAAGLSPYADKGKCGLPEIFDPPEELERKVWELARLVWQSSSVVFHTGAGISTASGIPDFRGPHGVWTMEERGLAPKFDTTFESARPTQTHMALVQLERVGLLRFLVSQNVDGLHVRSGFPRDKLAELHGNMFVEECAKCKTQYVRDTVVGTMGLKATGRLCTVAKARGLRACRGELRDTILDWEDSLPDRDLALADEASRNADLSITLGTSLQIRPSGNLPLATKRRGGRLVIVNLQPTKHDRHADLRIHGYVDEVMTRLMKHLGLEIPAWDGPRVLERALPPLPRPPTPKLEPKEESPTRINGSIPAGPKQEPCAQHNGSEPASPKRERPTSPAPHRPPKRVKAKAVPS

% activity 20 uM | % activity 100 uM | % activity (20 micromolar only) | SMILES
93% | 75% | – | O=C(c1ccc(-c2ccc(N3CCCCC3)nc2)cc1)N1CCCC1 [compound 49]
30% | 51% | – | O=C(Nc1ccc2nncn2c1)c1cccc(Cl)c1 [compound 50]
23% | 87% | – | CC(C)(C)c1ccc(C(=O)Nc2ccc3nnc(C4CCC4)n3c2)cc1 [compound 51]
69% | 142% | – | O=C(Nc1ccc2nnc(C3CCC3)n2c1)C1CC1 [compound 52]
36% | 22% | – | Cc1nc(Nc2ccc(F)cc2)sc1C(=O)Nc1ccc(F)cc1F [compound 53]
31% | 11% | – | Cc1ccc(Nc2nc(C)c(C(=O)Nc3cccc(C(C)C)c3)s2)cc1 [compound 54]
31% | 37% | – | COc1cc(NC(=O)c2csc(-c3cn(C)c4ncccc34)n2)cc(OC)c1 [compound 55]
30% | 53% | – | CCCC1(CO)CCCN1C(=O)c1ccc2cc[nH]c2c1 (stereo not drawn) [compound 56]
37% | 45% | – | N#Cc1cccc(-c2cn3c(n2)N(C(=O)c2ccncc2)CCC3)c1 [compound 57]
38% | 47% | – | Cc1noc(-c2cccc(OC3CN(C(=O)c4cccc5[nH]ccc45)C3)c2)n1 [compound 58]
89% | 175% | – | C=C(C)C1Cc2cc(C(F)(F)F)ccc2N2CCCCC12 (stereo not drawn) [compound 59]
28% | 113% | – | C=C1Cc2cc(C)cc(CC(=O)[C@@H](NS(=C)(=C)c3ccc(C)cc3)[C@H](C)CC)c2C2=C1CCC2 [compound 62]
– | – | 38% | O=C(NCc1ccc2c(c1)CCC2)c1ccc(NC(=O)C2CC2)cc1N1CCCCCC1 [compound 63]
– | – | 85% | CCn1c2ccccc2c2nnc(N3CCN(c4cccc(C(F)(F)F)c4)CC3)nc21 [compound 64]

SMILES | % activity 20 uM | % activity 100 uM | % activity (20 micromolar only)
Cc1nc(-c2cccc(C(F)(F)F)c2)c(N)c(N(C)C2CCN(C)CC2)n1 [compound 60] | 52% | 255% | –
Cc1nc(-c2cccc(F)c2)c(N)c(N(C)C2CCN(C)CC2)n1 [compound 61] | 50% | 210% | –
